Like-named read-outs stand apart in the source and are kept apart here.
Test system: cancer cells
Experiment: MTS cell growth inhibition assay (72 hours)
Type: cell-based
Description: Cells were maintained at 37° C., 5% CO2 in DMEM media supplemented with 1% fetal bovine serum, penicillin/streptomycin and fungizone (Invitrogen). Cells were seeded into 96-well tissue culture plates at 3000 per well and cultured at 37° C. for 18 hours. Test compounds were dissolved and diluted to 300× in DMSO then further diluted 1:40 in DMEM before addition to cells (1:7.5 dilution). Cells were incubated with test compounds for 72 hours followed by incubation with tetrazolium compound (3-(4,5-dimethylthiazol-2-yl)-5-(3-carboxymethoxyphenyl)-2-(4-sulfophenyl)-2H-tetrazolium, inner salt; MTS) and the electron coupling reagent, phenazine methosulfate (PMS) for 4 hours. […] The ability of compounds to inhibit cell growth in this assay is correlated with the reduction of dehydrogenase enzyme activity found in metabolically active cells. The measurement of the absorbance of the formazan was assessed using an ENVISION™ (Perkin Elmer) microplate reader at 492 nm. The calculated IC50 value is the concentration of the test compound that causes a 50% decrease in the absorbance. […] A=>79% inhibition, B=>50 to 79% inhibition, C=<50% inhibition.

[1] = Homo sapiens, NCI-H1299, 72 h, NCI-H1299 cells, read-out: NCI-H1299 MTS 72 hr at 10 μM
[2] = Homo sapiens, DLD-1, 72 h, DLD-1 cells, read-out: DLD-1 MTS 72 hr at 10 μM
[3] = Homo sapiens, KATO III, 72 h, KATO III cells, read-out: KATO III MTS 72 hr at 10 μM
[4] = Homo sapiens, MDA-MB-231, 72 h, MDA-MB-231 cells, read-out: MDA-MB-231 MTS 72 hr at 10 μM
[5] = PaCa-2, 72 h, PACA-2 cells, read-out: PACA-2 MTS 72 hr at 10 μM

Row | SMILES | inhibition at 10 µM [1] | inhibition at 10 µM [2] | inhibition at 10 µM [3] | inhibition at 10 µM [4] | inhibition at 10 µM [5]
1 | Nc1nc(NC2Cc3ccccc3N(S(=O)(=O)c3cccc(NC(=O)Nc4ccccc4F)c3)C2)c2cn[nH]c2n1 (centres unmarked) [Compound 215, 1-[3-({3-[(6-amino-1H-pyrazolo[3,4-d]pyrimidin-4-yl)amino]-3,4-dihydroquinolin-1(2H)-yl}sulfonyl)phenyl]-3-(2-fluorophenyl)urea] | < 50% |  |  |  | 
2 | Nc1nc(NC2Cc3ccccc3N(C(=O)c3ccc(F)cc3F)C2)c2cn[nH]c2n1 (centres unmarked) [Compound 86, (3-(6-amino-1H-pyrazolo[3,4-d]pyrimidin-4-ylamino)-3,4-dihydroquinolin-1(2H)-yl)(2,4-difluorophenyl)methanone] | < 50% | < 50% | < 50% | < 50% | < 50%
3 | Nc1nc(NC2Cc3ccccc3N(S(=O)(=O)Cc3ccccc3)C2)c2cn[nH]c2n1 (centres unmarked) [Compound 21, N4-(1-(benzylsulfonyl)-1,2,3,4-tetrahydroquinolin-3-yl)-1H-pyrazolo[3,4-d]pyrimidine-4,6-diamine] | < 50% | > 79% | > 79% | 50 to 79% | > 79%
4 | Nc1nc(NC2Cc3ccccc3N(C(=O)Nc3ccc(F)c(F)c3F)C2)c2cn[nH]c2n1 (centres unmarked) [Compound 120, 3-(6-amino-1H-pyrazolo[3,4-d]pyrimidin-4-ylamino)-N-(2,3,4-trifluorophenyl)-3,4-dihydroquinoline-1(2H)-carboxamide] | < 50% | > 79% | > 79% | 50 to 79% | > 79%
5 | Cc1ccc(F)c(CN2CC(Nc3nc(N)nc4[nH]ncc34)Cc3ccccc32)c1 (centres unmarked) [Compound 135, N4-[1-(2-fluoro-5-methylbenzyl)-1,2,3,4-tetrahydroquinolin-3-yl]-1H-pyrazolo[3,4-d]pyrimidine-4,6-diamine] | 50 to 79% | > 79% | > 79% | 50 to 79% | > 79%
6 | COc1cccc(S(=O)(=O)N2CC(Nc3nc(N)nc4[nH]ncc34)Cc3ccccc32)c1 (centres unmarked) [Compound 24, N4-(1-(3-methoxyphenylsulfonyl)-1,2,3,4-tetrahydroquinolin-3-yl)-1H-pyrazolo[3,4-d]pyrimidine-4,6-diamine] | < 50% | < 50% | > 79% | < 50% | < 50%
7 | Cc1cccc(NC(=O)Nc2ccc(S(=O)(=O)N3CC(Nc4nc(N)nc5[nH]ncc45)Cc4ccccc43)cc2)c1 (centres unmarked) [Compound 195, 1-[4-({3-[(6-amino-1H-pyrazolo[3,4-d]pyrimidin-4-yl)amino]-3,4-dihydroquinolin-1(2H)-yl}sulfonyl)phenyl]-3-(3-methylphenyl)urea] | < 50% | > 79% | > 79% | > 79% | > 79%
8 | CC(C)c1cccc(C(C)C)c1NC(=O)N1CC(Nc2nc(N)nc3[nH]ncc23)Cc2ccccc21 (centres unmarked) [Compound 112, 3-(6-amino-1H-pyrazolo[3,4-d]pyrimidin-4-ylamino)-N-(2,6-diisopropylphenyl)-3,4-dihydroquinoline-1(2H)-carboxamide] | < 50% | < 50% | < 50% | < 50% | < 50%
9 | Nc1nc(NC2Cc3ccccc3N(S(=O)(=O)c3ccc(NC(=O)Nc4ccccc4Cl)cc3)C2)c2cn[nH]c2n1 (centres unmarked) [Compound 190, 1-[4-({3-[(6-amino-1H-pyrazolo[3,4-d]pyrimidin-4-yl)amino]-3,4-dihydroquinolin-1(2H)-yl}sulfonyl)phenyl]-3-(2-chlorophenyl)urea] | < 50% | < 50% | < 50% | < 50% | < 50%
10 | Nc1nc(NC2Cc3ccccc3N(Cc3ccc(-c4ccccn4)cc3)C2)c2cn[nH]c2n1 (centres unmarked) [Compound 143, N4-[1-(4-pyridin-2-ylbenzyl)-1,2,3,4-tetrahydroquinolin-3-yl]-1H-pyrazolo[3,4-d]pyrimidine-4,6-diamine] | < 50% | < 50% | < 50% | < 50% | < 50%
11 | N#Cc1cccc(S(=O)(=O)N2CCC(Nc3nc(N)nc4[nH]ncc34)Cc3ccccc32)c1 (centres unmarked) [Compound 180, 3-({4-[(6-amino-1H-pyrazolo[3,4-d]pyrimidin-4-yl)amino]-2,3,4,5-tetrahydro-1H-1-benzazepin-1-yl}sulfonyl)benzonitrile] | < 50% | < 50% | < 50% | < 50% | < 50%
12 | CC(C)(C)CC(=O)N1CC(Nc2nc(N)nc3[nH]ncc23)Cc2ccccc21 (centres unmarked) [Compound 94, 1-(3-(6-amino-1H-pyrazolo[3,4-d]pyrimidin-4-ylamino)-3,4-dihydroquinolin-1(2H)-yl)-3,3-dimethylbutan-1-one] | < 50% | < 50% | < 50% | < 50% | < 50%
13 | N#Cc1cccc(CN2CC(Nc3nc(N)nc4[nH]ncc34)Cc3ccccc32)c1 (centres unmarked) [Compound 145, 3-({3-[(6-amino-1H-pyrazolo[3,4-d]pyrimidin-4-yl)amino]-3,4-dihydroquinolin-1(2H)-yl}methyl)benzonitrile] | > 79% | > 79% | > 79% | > 79% | > 79%
14 | COc1ccc(OC)c(CC(=O)N2CC(Nc3nc(N)nc4[nH]ncc34)Cc3ccccc32)c1 (centres unmarked) [Compound 105, 1-(3-(6-amino-1H-pyrazolo[3,4-d]pyrimidin-4-ylamino)-3,4-dihydroquinolin-1(2H)-yl)-2-(2,5-dimethoxyphenyl)ethanone] | < 50% | < 50% | < 50% | < 50% | < 50%
15 | Nc1nc(NC2Cc3ccccc3N(S(=O)(=O)c3ccc(Oc4ccccc4)cc3)C2)c2cn[nH]c2n1 (centres unmarked) [Compound 27, N4-(1-(4-phenoxyphenylsulfonyl)-1,2,3,4-tetrahydroquinolin-3-yl)-1H-pyrazolo[3,4-d]pyrimidine-4,6-diamine] | 50 to 79% | > 79% | > 79% | > 79% | > 79%
16 | Nc1nc(NC2CCN(S(=O)(=O)c3cccc(F)c3)c3ccccc3C2)c2cn[nH]c2n1 (centres unmarked) [Compound 169, N4-{1-[(3-fluorophenyl)sulfonyl]-2,3,4,5-tetrahydro-1H-1-benzazepin-4-yl}-1H-pyrazolo[3,4-d]pyrimidine-4,6-diamine] | < 50% | < 50% | < 50% | < 50% | < 50%
17 | CCC(C)(C)c1ccc(S(=O)(=O)N2CC(Nc3nc(N)nc4[nH]ncc34)Cc3ccccc32)cc1 (centres unmarked) [Compound 61, N4-(1-(4-tert-pentylphenylsulfonyl)-1,2,3,4-tetrahydroquinolin-3-yl)-1H-pyrazolo[3,4-d]pyrimidine-4,6-diamine] | < 50% | < 50% | < 50% | < 50% | < 50%
18 | CCc1ccc(S(=O)(=O)N2CC(Nc3nc(N)nc4[nH]ncc34)Cc3ccccc32)cc1 (centres unmarked) [Compound 59, N4-(1-(4-ethylphenylsulfonyl)-1,2,3,4-tetrahydroquinolin-3-yl)-1H-pyrazolo[3,4-d]pyrimidine-4,6-diamine] | < 50% | < 50% | < 50% | < 50% | < 50%
19 | Nc1nc(NC2Cc3ccccc3N(S(=O)(=O)c3ccc(NC(=O)NC4CCCc5ccccc54)cc3)C2)c2cn[nH]c2n1 (centres unmarked) [Compound 192, 1-[4-({3-[(6-amino-1H-pyrazolo[3,4-d]pyrimidin-4-yl)amino]-3,4-dihydroquinolin-1(2H)-yl}sulfonyl)phenyl]-3-(1,2,3,4-tetrahydronaphthalen-1-yl)urea] | > 79% | > 79% | > 79% | > 79% | > 79%
20 | Nc1nc(NC2Cc3ccccc3N(Cc3ccccc3Oc3ccccc3)C2)c2cn[nH]c2n1 (centres unmarked) [Compound 149, N4-[1-(2-phenoxybenzyl)-1,2,3,4-tetrahydroquinolin-3-yl]-1H-pyrazolo[3,4-d]pyrimidine-4,6-diamine] | < 50% | > 79% | 50 to 79% | < 50% | < 50%
21 | Nc1nc(NC2Cc3ccccc3N(C(=O)Nc3cc(C(F)(F)F)ccc3F)C2)c2cn[nH]c2n1 (centres unmarked) [Compound 108, 3-(6-amino-1H-pyrazolo[3,4-d]pyrimidin-4-ylamino)-N-(2-fluoro-5-(trifluoromethyl)phenyl)-3,4-dihydroquinoline-1(2H)-carboxamide] | < 50% | < 50% | < 50% | < 50% | < 50%
